Results published in ChEMBL document CHEMBL1201862, “PubChem BioAssay data set” (2004).
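Each compound was tested at five concentrations against cells in 96-well plates for 48 hours. GI50 marks 50% less growth.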 Calls of active or inactive are those of the source. Cut-off read from the data, not from the text of the source: active = GI50 up to about 1.1 µM and inactive = higher.

Assays:
Test in all cases: growth of human tumour cells (NCI), 48 h
DMS-114 = tested on: DMS-114
DMS-273 = tested on: DMS-273
M19-MEL = tested on: M19-MEL
XF498 = tested on: XF498
HOP-18 = tested on: HOP-18
LXFL 529 = tested on: LXFL 529
KM-20L2 = tested on: KM-20L2
SNB-78 = tested on: SNB-78
RXF 631 = tested on: RXF 631

Row | SMILES | GI50 (DMS-114) | GI50 (DMS-273) | GI50 (M19-MEL) | GI50 (XF498) | GI50 (HOP-18) | GI50 (LXFL 529) | GI50 (KM-20L2) | GI50 (SNB-78) | GI50 (RXF 631)
1 | S=P(N1CC1)(N1CC1)N1CC1 [THIOTEPA] | 35.4 µM (inactive) | 21.3 µM (inactive) | 142 µM (inactive) | 95.1 µM (inactive) | 231 µM (inactive) | 146 µM (inactive) | 175 µM (inactive) | 385 µM (inactive) | –
2 | O=[N+]([O-])/C=C/c1ccc(Cl)cc1Cl | 17.8 µM (inactive) | 11 µM (inactive) | 5.77 µM (inactive) | – | – | 13.8 µM (inactive) | 18.7 µM (inactive) | – | –
3 | COC(=O)/C=C1/CCC2[C@@H](C(=O)CC3[C@]2(C)CCC[C@@]3(C)C(=O)OC)C1C (stereo not given in full) | 10.3 µM (inactive) | 12.7 µM (inactive) | 15.5 µM (inactive) | 15.3 µM (inactive) | 14.4 µM (inactive) | 6.22 µM (inactive) | 13.1 µM (inactive) | 10 µM (inactive) | 15.5 µM (inactive)
4 | O=C(N/C(=C\c1cccc([N+](=O)[O-])c1)c1nc2cc([N+](=O)[O-])ccc2[nH]1)c1ccccc1 | – | 39 µM (inactive) | 40.7 µM (inactive) | 20.7 µM (inactive) | – | 11 µM (inactive) | 23.1 µM (inactive) | 49.3 µM (inactive) | 28.8 µM (inactive)
5 | COc1ccc(OC)c(CCc2ccccc2CC(=O)O)c1 | > 100 µM (inactive) | > 100 µM (inactive) | > 100 µM (inactive) | > 100 µM (inactive) | > 100 µM (inactive) | > 100 µM (inactive) | > 100 µM (inactive) | > 100 µM (inactive) | –
6 | COc1ccc2nc3ccccc3c(NCCN(CCCl)CCCl)c2c1 | – | 0.333 µM (active) | 1.27 µM (inactive) | 0.497 µM (active) | – | 0.466 µM (active) | 0.474 µM (active) | 0.769 µM (active) | 0.455 µM (active)
7 | CCN(CC)c1ccc2c(c1)N=C1N=CC=CN1C2(c1ccc(N(C)C)cc1)c1ccc(N(C)C)cc1 | 3.09 µM (inactive) | 25.8 µM (inactive) | 5.97 µM (inactive) | 3.72 µM (inactive) | 3.72 µM (inactive) | 3.84 µM (inactive) | 2.97 µM (inactive) | 16.7 µM (inactive) | 3.83 µM (inactive)
8 | COc1ccc(-c2cc(=O)c3c(O)cc(O)cc3o2)c(OC)c1OC | 50.1 µM (inactive) | – | 63 µM (inactive) | 63 µM (inactive) | – | 49.3 µM (inactive) | 30.1 µM (inactive) | – | –
9 | CCCc1nn(C)c(CCC(=O)N(Cc2ccccc2)Cc2ccccc2)c1CC | > 100 µM (inactive) | – | > 100 µM (inactive) | > 100 µM (inactive) | > 100 µM (inactive) | > 100 µM (inactive) | > 100 µM (inactive) | > 100 µM (inactive) | –
10 | Cc1ccccc1C1=C/C(=C(\SS/C(C(=O)c2ccc(OCC(=O)O)c(Cl)c2Cl)=C2\C=C(c3ccccc3C)SS2)C(=O)c2ccc(OCC(=O)O)c(Cl)c2Cl)SS1 | 9.04 µM (inactive) | 20 µM (inactive) | 21.3 µM (inactive) | 19.2 µM (inactive) | 16.2 µM (inactive) | 4.45 µM (inactive) | 37.9 µM (inactive) | 14.4 µM (inactive) | 25.9 µM (inactive)
11 | O=c1cc(-c2ccccc2)oc2cc(O)cc(O)c12 [CHRYSIN] | 22.4 µM (inactive) | 16.2 µM (inactive) | 25.5 µM (inactive) | 20 µM (inactive) | – | 21.1 µM (inactive) | 23.9 µM (inactive) | 28.8 µM (inactive) | –
12 | CCC12CCCN(Cc3ccccc3)C1c1c(n(C)c3ccccc13)C(C(=O)OC)C2 (stereo not given) | 90.6 µM (inactive) | 84.5 µM (inactive) | 112 µM (inactive) | 36.8 µM (inactive) | – | 96.6 µM (inactive) | 130 µM (inactive) | – | 111 µM (inactive)
13 | COC(=O)c1ccccc1/N=C/c1ccc(N(CCC#N)S(=O)(=O)c2ccccc2)cc1 | – | > 100 µM (inactive) | > 100 µM (inactive) | > 100 µM (inactive) | > 100 µM (inactive) | > 100 µM (inactive) | > 100 µM (inactive) | > 100 µM (inactive) | > 100 µM (inactive)
14 | CN1C(=O)C(Cl)(C(Cl)(Cl)S(=O)(=O)O)C(=O)c2ccccc21.c1ccncc1 (stereo not given) | – | – | > 100 µM (inactive) | – | – | > 100 µM (inactive) | 19.5 µM (inactive) | – | –
15 | COC[C@@H](/N=C/N1CCc2cc(OC)c(OC)cc2C1)C(C)(C)C | > 100 µM (inactive) | – | > 100 µM (inactive) | > 100 µM (inactive) | > 100 µM (inactive) | > 100 µM (inactive) | > 100 µM (inactive) | – | > 100 µM (inactive)
16 | COC(=O)C1=C(c2ccc(OC)c(OC)c2)OC(c2ccc(OC)c(OC)c2)C1 (stereo not given) | 23.2 µM (inactive) | 54.7 µM (inactive) | 42.6 µM (inactive) | 23.2 µM (inactive) | 33.5 µM (inactive) | 16.2 µM (inactive) | 39.4 µM (inactive) | 28.7 µM (inactive) | –
17 | COc1cc2c(c(OC)c1OC)-c1ccc(SC)c(=O)cc1C(CC(=O)Oc1cccc(F)c1)C2 (stereo not given) | 0.24 µM (active) | 0.214 µM (active) | 0.263 µM (active) | 0.344 µM (active) | > 62.2 µM (inactive) | 0.316 µM (active) | 0.0813 µM (active) | 0.237 µM (active) | 0.115 µM (active)
18 | Cc1ccccc1C(C#N)/C(=N/NC(=O)C(=O)NN)C(=O)Nc1cccc(C(F)(F)F)c1 (stereo not given) | > 100 µM (inactive) | > 100 µM (inactive) | > 100 µM (inactive) | – | > 100 µM (inactive) | > 100 µM (inactive) | > 100 µM (inactive) | > 100 µM (inactive) | > 100 µM (inactive)
19 | Cc1cc(O)nc(NNC(C#N)c2ccccc2O)n1 (stereo not given) | 19.8 µM (inactive) | 5.27 µM (inactive) | 17.8 µM (inactive) | – | 23.3 µM (inactive) | – | 13.1 µM (inactive) | – | –
20 | C[C@H]1CC[C@H](NC(=O)N(CCCl)N=O)CC1 | 36.5 µM (inactive) | 33.1 µM (inactive) | 41.3 µM (inactive) | 45.7 µM (inactive) | 40.8 µM (inactive) | 14.9 µM (inactive) | 56.4 µM (inactive) | 35.2 µM (inactive) | 33.1 µM (inactive)
21 | CCOc1ccc(/C=C\c2cc(OC)c(OC)c(OC)c2)cc1 | 0.00118 µM (active) | 0.0153 µM (active) | 0.0191 µM (active) | 0.000453 µM (active) | – | < 0.0001 µM (active) | 0.000241 µM (active) | 0.000745 µM (active) | 0.367 µM (active)
22 | c1ccc(-c2nnc3nn4c(-c5ccccc5)cnnc4c3c2-c2ccccc2)cc1 | 35.6 µM (inactive) | > 100 µM (inactive) | 88.7 µM (inactive) | 27.5 µM (inactive) | 53 µM (inactive) | 42.7 µM (inactive) | 95.3 µM (inactive) | 31.7 µM (inactive) | 18.7 µM (inactive)
23 | CNS(=O)(=O)NNS(=O)(=O)c1ccc2ccccc2c1 | > 100 µM (inactive) | > 100 µM (inactive) | > 100 µM (inactive) | – | > 100 µM (inactive) | > 100 µM (inactive) | > 100 µM (inactive) | > 100 µM (inactive) | –
24 | CC(C)C(Nc1c2ccccc2nc2ccccc12)C(=O)O (stereo not given) | – | 68.4 µM (inactive) | > 100 µM (inactive) | 3.08 µM (inactive) | – | > 100 µM (inactive) | > 100 µM (inactive) | – | –
25 | COc1ccc(/C=N/N=C(\N)NO)cc1OC | 28.7 µM (inactive) | 48.9 µM (inactive) | 44.8 µM (inactive) | 35.1 µM (inactive) | – | 33.9 µM (inactive) | 37.8 µM (inactive) | > 100 µM (inactive) | –
26 | CS(=O)(=O)c1ccc(COP(N)(=O)N(CCCl)CCCl)cc1 (stereo not given) | > 100 µM (inactive) | > 100 µM (inactive) | > 100 µM (inactive) | > 100 µM (inactive) | – | > 100 µM (inactive) | > 100 µM (inactive) | > 100 µM (inactive) | –
27 | O=C1NC(c2ccccc2)(c2ccccc2)C(=O)N1CCCCCCN1C(=O)NC(c2ccccc2)(c2ccccc2)C1=O | 34.2 µM (inactive) | 46 µM (inactive) | > 100 µM (inactive) | 10.3 µM (inactive) | 26.2 µM (inactive) | 25.9 µM (inactive) | > 100 µM (inactive) | 33.3 µM (inactive) | –
28 | CC(=O)OC1COC(n2c(=S)n(-c3ccccc3)c(=O)c3ccccc32)C(OC(C)=O)C1OC(C)=O (stereo not given) | 40.6 µM (inactive) | 19.2 µM (inactive) | – | 74.6 µM (inactive) | > 100 µM (inactive) | 8.55 µM (inactive) | 4.29 µM (inactive) | > 100 µM (inactive) | 47.9 µM (inactive)
29 | CC[C@H](C)C(=O)O[C@H]1C[C@@H](C)C=C2C=C[C@H](C)[C@H](CC[C@@H]3C[C@@H](O)CC(=O)O3)[C@H]21 [LOVASTATIN] | > 30 µM (inactive) | 8.69 µM (inactive) | 2.42 µM (inactive) | – | > 30 µM (inactive) | 7.76 µM (inactive) | > 30 µM (inactive) | – | –
